{"source": "patent US7244712B2", "about": "“Aminoglycoside antibiotics and methods of using same” (priority 2004, dated 2007)", "key": {"[1]": {"tested_on": "E. coli S30 extract, containing 70S ribosomes", "assay": "In vitro protein translation (CAT mRNA, 35S methionine incorporation)", "format": "biochemical", "details": "quantitation of gel bands, read-out: IC50, concentration producing 50% inhibition of translation", "protocol": "Protein translation was performed from chloramphenicol acetyl transferase (CAT) mRNA. […] A commercial E. coli ribosomal suspension was supplemented with an E. coli extract containing the required elements for translation. These include translation factors, tRNAs, and aminoacyl tRNA synthases. Plasmid, T7 RNA polymerase and amino acids were added to the reaction mixture, and both transcription and translation steps were performed in the same vial. The effects of the aminoglycosides on the translation process were evaluated by measuring the incorporation of ^35S methionine in the translated chloramphenicol acetyl transferase protein.\nIn vitro translation was performed by using PROTEINscript™-PRO (Ambion) kit. […] Reaction mixtures contained appropriate concentrations of antibiotic (neomycin B, D- and L-neamine). The protein was translated from CAT mRNA, transcribed from control DNA template containing CAT gene under control of the T7 promotor. The product, ˜25 kDa chloramphenicol acetyl transferase, was labeled during translation with 1 μCi ^35S methionine (New England Nuclear) per reaction (no cold methionine was added).\nFollowing the translation, the samples were analyzed by electrophoresis on 4-20% SDS mini-gels (Invitrogen) for 1.5 h at 120V. Gels were fixed with 40% methanol/10% acetic acid and exposed to Molecular Dynamics phosphoimager plates, which were read on a Personal FX phosphoimager (Bio-Rad) and quantitated using QuantityOne™ software."}, "70S ribosome": {"target": "70S ribosome", "assay": "Fluorescence anisotropy binding to 70S ribosomes", "details": "competition with CRP, E. coli ribosomes; read-out: Dissociation constant (KD) with 70S ribosome", "procedure": "(§1) After establishing the lack of stereospecificity in the binding of aminoglycosides to the A-site RNA constructs (FIG. 9A-C) where the binding affinity, KD, is about 0.1 μM to about 100 μM, the stereospecificity of aminoglycoside binding to intact ribosomes was determined. Both yeast and E. coli ribosomes were prepared and aminoglycoside binding was measured using fluorescence anisotropy methods. For example, fluorescence anisotropy methods recited in Wang, Y., and Rando, R. R. Chem. Biol. (1995) 2, 281-290; and Wang, Y., Hamasaki, K., and Rando, R. R. Biochemistry (1997) 36,768-779. CRP was used as the binding probe. […] Binding data reported herein for aminoglycoside compounds with eukaryotic yeast ribosomes are similar to binding data for said aminoglycoside compounds with ribosoimes in bacteria and with eukaryotic A-site rRNA constructs.\n(§2) 5-Carboxytetramethylrhodamine-labeled paromomycin (CRP) and tobramycin (CRT) concentrations were determined spectroscopically at 550 nm using a molar extinction coefficient of 6.00×10 4 M −1 cm −1. Fluorescence anisotropy measurements were performed on a Perkin-Elmer LS-50B luminescence spectrometer equipped with a thermostat accurate to ±0.1° C. as indicated previously (Wang, Y., Hamasaki, K., & Rando, R. R. (1997) Biochemistry 36, 768-779). The tracer solution was excited at 550 nm and monitored at 580 nm. The integration time was 5 s. For every point, 6 measurements were taken, and their average values were used for calculation. Measurements were carried out in a buffer solution containing 150 mM NaCl, 5 mM KCl, 1 mM CaCl2, 1 mM MgCl2, and 20 mM HEPES (pH 7.5). Prior to measurements, RNA constructs were renatured by incubating in binding buffer {150 mM NaCl, 5 mM KCl, 1 mM CaCl2, 1 mM MgCl2, and 20 mM HEPES (pH 7.5)} for 3 minutes at 90° C. followed by slow cooling to 25° C.\n(§3) Equation 1 was used for the determination of the dissociation constant (Kd) for the interactions between RNA or ribosome and CRP. A=A0+DA{(RNA)0+(CRP)0+Kd−({(RNA)0+(CRP)0+Kd}^2−4(RNA)0(CRP)0)½}/2 where A and A0 are the fluorescence anisotropy of CRP in the presence and absence of RNA, respectively, and DA is the difference between the fluorescence anisotropy of CRP in the presence of an extrapolated infinite concentration of RNA minus the fluorescence anisotropy in the absence of RNA. (RNA)0 and (CRP)0 are the initial concentrations of RNA and CRP, respectively.\n(§4) Equation 2 is used for the calculation of the KD values in the competition binding assay. (aminoglycoside)0={KD(A−−A)/Kd(A−A0)+1}{(RNA)0−Kd(A−A0)/(A−−A)−(CRP)0(A−A0)/(A−−A)} where KD is the dissociation constant between the RNA and the aminoglycosides; (aminoglycoside)0 is the initial concentration of the aminoglycosides; AL is anisotropy of completely bound tracer. Both Kd and KD were determined by non-linear curve fitting using the equations described above, and are presented as mean values of three independent measurements.\nThe purification of E. coli (E600) 70S ribosomes was carried out according to the published procedure (Lazaro, E., van den Broek, L. A. G. M., Felix, A. S., Ottenheijm, H. C. J., Ballesta, J. P. G. (1991) Biochemistry 30, 9642-9648). E. coli MRE600 were grown for 12 h in 6L of LB medium (10 g trypton, 5 g yeast extract, 5 g NaCl per 1 L, pH 7.0) at 37° C. Crude ribosomes were precipitated from clarified supernatant by 4 h centrifugation at 25,000 rpm in Beckman SW 28 rotor at 4° C. The ribosome pellets were collected in 5 mL of buffer BR1, containing 10 mM HEPES, pH 7.5, 500 mM ammonium acetate, 100 mM magnesium chloride and 2.5 mM DTT. The ribosome suspension was centrifuged for 20 min at 15000 rpm to be clarified. The clarified sample was loaded over two layers of 20% and 40% sucrose in buffer BR1 and centrifuged for 18 hr at 19000 rpm in Beckman SW28 rotor at 4° C. […]"}, "[2]": {"tested_on": "E. coli (ATCC 25922) transformed with pMM plasmid bearing APH(3')IIa", "assay": "MIC, kanamycin/neomycin resistant E. coli", "format": "cell-based", "details": "growth inhibition greater than 90%", "procedure": "(§5) E. coli (ATCC 25922) and P. aeruginosa (ATCC 27853) (BD Bioscience) were inoculated in 3 mL of the medium 2 (U.S. Pharmacopia), containing 6 g peptone, 3 g yeast extract and 1.5 g beef extract per 1 L, pH 6.6, and were grown in a shaker for 6 h at 37° C. until an OD 560=0.6-0.8 was reached.\n(§6) Minimal inhibitory concentrations (MIC) were measured according to the published method (Greenberg, W. A., Priestley, E. S., Sears, P. S., Alper, P. B., Rosenbohm, C., Hendrix, M., Hung, S.-C., & Wong, C.-H. (1999) J. Am. Chem. Soc. 121, 6527-6541). E. coli (ATCC 25922) (both wild type and pMM-transformed) and P. aeruginosa (ATCC 27853) were grown in medium 2 to an optical density OD 600 of 0.6-0.8. The inoculi were diluted to OD 600 ˜0.1 in medium 2 and 1 mL of the culture was placed in 13 mL test tubes. The desired concentrations of antibiotic were added from stock solutions. […] The absorbance at 600 nm of each sample was read and MIC was taken as the lowest antibiotic concentration inhibiting bacterial growth by greater than 90%."}, "E. coli (ATCC 25922) [3]": {"tested_on": "E. coli (ATCC 25922)", "assay": "Bactericidal activity (bactericide index)", "format": "cell-based", "details": "3 h incubation, FIG. 8", "procedure": "The bactericidal activity of each antibiotic was investigated at concentrations of 0.5-4×MIC in medium E. coli (ATCC 25922) inoculum was added to 0.5 mL medium 2 to OD 600 ˜0.1 together with different antibiotic concentrations. The samples were incubated at 37° C. for 3 hrs, and the bacteria were collected by centrifugation. The bacterial pellets were washed with 0.5 mL of medium 2 and were plated on 1.5% medium 2 agar in 100 mm Petri dishes. The plates were incubated for 1-2 days at 37° C. and mean log 10 change in viable count was calculated and plotted vs drug concentration."}, "[4]": {"tested_on": "P. aeruginosa (ATCC 27853)", "assay": "MIC, P. aeruginosa", "format": "cell-based", "details": "growth inhibition greater than 90%", "procedure": "as §6"}, "80S ribosome": {"target": "80S ribosome", "assay": "Fluorescence anisotropy binding to 80S ribosomes", "set-up": "species or system yeast (S. cerevisiae)", "details": "competition with CRP, yeast ribosomes; read-out: Dissociation constant (KD) with 80S ribosome", "procedure": "as §1, §2, §3, §4\nThe purification of yeast 80S ribosomes from S. cerevisiae strain YSB 758 was carried out according to the published procedure (Verschoor, A., Warner, J. R., Srivastava, S., Grassucci, R. A., & Frank, J. (1997) Nucl. Acid Res. 26, 655-661). S. cerevisiea YSB 758 were grown for 12 hrs at 30° C. in 2L of YPD medium, containing: 20 g bacto peptone, 20 g glucose, 10 g yeast extract and 0.15 g tryptophan per 1 L, pH 7.0. The cells were lysed by 5-10 cycles of 1 min vigorous shaking with glass beads with a vortex, followed by cooling on ice. Clarified cell extract (about 9 mL total, used in 6 portions in 1.5 mL aliqouts) was carefully loaded on top of 2 mL of a cushion, composed of 10% sucrose and 5% ammonium sulfate dissolved in buffer YR1 (20 mM HEPES pH=7.4, 16 mM magnesium chloride, 100 mM potassium chloride, 5 mM DTT, and 0.5 mM EDTA). The ribosomes were collected by centrifugation in Beckman TL100.3 rotor at 75000 rpm for 3 h. The supernatants were carefully discarded and ribosomes were collected in buffer YR1. […]"}, "E. coli (ATCC 25922) [5]": {"tested_on": "E. coli (ATCC 25922)", "assay": "MIC, wild type E. coli", "format": "cell-based", "details": "growth inhibition greater than 90%", "procedure": "as §6"}, "[6]": {"tested_on": "E. coli (ATCC 25922) transformed with the plasmid pMM, bearing the APH(3')IIa gene", "assay": "Antibiotic activity disk assay, kanamycin/neomycin resistant E. coli", "format": "cell-based", "details": "FIG. 7B", "procedure": "as §5\nFor the antibiotic disk assay, […] of each bacterial inoculum was mixed with 10 mL of melted agar (1.5% medium 2 agar, BD Bioscience) at 50-55° C. and poured onto 100 mm Petri dishes. Sterile Whatmann 3 MM 5 mm paper disks were soaked with antibiotic solutions and allowed to dry. The disks were positioned evenly on the surface of bacterial-inoculated solid agar and the plates were incubated at 37° C. for 1-2 days. MIC and bactericide index measurements."}}, "note": "Entries after “also recorded” stand apart in the source; their conditions may differ."}
{"smiles": "NCC1OC(OC2C(N)CC(N)C(O)C2O)C(N)C(O)C1O", "note": "[D-Neamine]", "values": [{"measurement": "IC50", "setting": "[1]", "result": 38, "unit": "µM"}, {"measurement": "Kd", "setting": "70S ribosome", "result": "5.45 ± 0.68", "unit": "µM"}, {"measurement": "Minimal inhibitory concentration (MIC), E. coli kan/neo resistant", "setting": "[2]", "result": ">6400", "unit": "µM"}, {"measurement": "Concentration at which bactericidal effect begins", "setting": "E. coli (ATCC 25922) [3]", "result": 75, "unit": "µM"}, {"measurement": "Minimal inhibitory concentration (MIC), P. aeruginosa", "setting": "[4]", "result": 500, "unit": "µM"}, {"measurement": "Kd", "setting": "80S ribosome", "result": "1.14 ± 0.25", "unit": "µM"}, {"measurement": "Minimal inhibitory concentration (MIC), E. coli", "setting": "E. coli (ATCC 25922) [5]", "result": 150, "unit": "µM"}, {"measurement": "Antibiotic activity in disk assay, kanamycin/neomycin resistant E. coli", "setting": "[6]", "result": "selective resistance towards D-neamine; also recorded: essentially abolished"}]}
